Literature values, collected in patent US20260207540A1 (priority 2020, published 2026).

Tests used:
[1] = 1 microgram/kg IV, canines
[2] = inhalation challenge 0.25 to 10.0 mg/mL
[3] = test system: SRCR (scavenger receptor cysteine-rich) domain; conditions: proteins with calcium binding sites similar to host protease TMPRSS2

| Molecule | EDTA-induced bronchoconstriction [1] | Rubella virus infection (Rubella virus; in the "test tube") | Rubella fusion (Rubella virus; in vitro, addition of the calcium chelator) | bronchoconstriction [2] | calcium-dependent binding [3] |
| --- | --- | --- | --- | --- | --- |
| albuterol sulfate | significantly attenuated | – | – | – | – |
| O=C(O)CN(CCN(CC(=O)O)CC(=O)O)CC(=O)O [EDTA, ethylenediamine tetraacetic acid] | – | prevented | completely abrogated | concentration-dependent bronchoconstriction | disrupted |
